Results taken from patent US12077503B2, “Substituted cyclic amides and their use as herbicides” (FMC CORPORATION, priority 2015, dated 2024).

How the values were obtained:
Assay type in all cases: in vivo
[1] = test system: redroot pigweed (Amaranthus retroflexus); assay: Test G Pre-Emergence Protocol; conditions: Amaranthus retroflexus, pre-emergence, 312 h, evaluated after 13 days; for pest or weed control at 15.625 g/ha: 15.625 g ai/ha; for pest or weed control at 15.625 g/ha / pest or weed control at 250 g/ha: read-out: Pigweed, Redroot damage rating (100=total damage to plant; 0=no damage to plant); for pest or weed control at 62.5 g/ha: 62.5 g ai/ha, 100=total damage to plant, 0=no damage to plant, read-out: plant damage rating, Pigweed, Redroot; for pest or weed control at 250 g/ha: 250 g ai/ha
How it was run: (§1)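 Visual injury (0–100) at day 13 after a single pre-emergence spray. Rates: 15.625, 62.5, 250 g/ha in acetone–water 50:50 with 0.5% Tween 20. Growth conditions: 24/16° C, 14 h light, 65% humidity.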

[2] = test system: velvetleaf (Abutilon theophrasti); assay: Test G Pre-Emergence Protocol; conditions: Abutilon theophrasti, pre-emergence, 312 h, evaluated after 13 days; for pest or weed control at 15.625 g/ha: 15.625 g ai/ha; for pest or weed control at 15.625 g/ha / pest or weed control at 250 g/ha: read-out: Velvetleaf damage rating (100=total damage to plant; 0=no damage to plant); for pest or weed control at 62.5 g/ha: 62.5 g ai/ha, 100=total damage to plant, 0=no damage to plant, read-out: plant damage rating, Velvetleaf; for pest or weed control at 250 g/ha: 250 g ai/ha
How it was run: as §1

[3] = test system: corn (Zea mays); assay: Test G Pre-Emergence Protocol; conditions: Zea mays, pre-emergence, 312 h, evaluated after 13 days; for plant injury at 15.625 g/ha: 15.625 g ai/ha; for plant injury at 15.625 g/ha / plant injury at 250 g/ha: read-out: Corn damage rating (100=total damage to plant; 0=no damage to plant); for plant injury at 62.5 g/ha: 62.5 g ai/ha, 100=total damage to plant, 0=no damage to plant, read-out: plant damage rating, Corn; for plant injury at 250 g/ha: 250 g ai/ha
How it was run: as §1

[4] = test system: giant foxtail (Setaria faberi); assay: Test G Pre-Emergence Protocol; conditions: Setaria faberi, pre-emergence, 312 h, evaluated after 13 days; for pest or weed control at 15.625 g/ha: 15.625 g ai/ha; for pest or weed control at 15.625 g/ha / pest or weed control at 250 g/ha: read-out: Foxtail, Giant damage rating (100=total damage to plant; 0=no damage to plant); for pest or weed control at 62.5 g/ha: 62.5 g ai/ha, 100=total damage to plant, 0=no damage to plant, read-out: plant damage rating, Foxtail, Giant; for pest or weed control at 250 g/ha: 250 g ai/ha
How it was run: as §1

[5] = test system: ivy-leaved morning glory (Ipomoea hederacea); assay: Test G Pre-Emergence Protocol; conditions: Ipomoea, pre-emergence, 312 h, evaluated after 13 days; for pest or weed control at 15.625 g/ha: 15.625 g ai/ha, read-out: Morning-glory, Ivy-leaved damage rating (100=total damage to plant; 0=no damage to plant); for pest or weed control at 62.5 g/ha: 62.5 g ai/ha, 100=total damage to plant, 0=no damage to plant, read-out: plant damage rating, Morningglory, Ivy-leaved; for pest or weed control at 250 g/ha: 250 g ai/ha, read-out: Morningglory, Ivy-leaved damage rating (100=total damage to plant; 0=no damage to plant)
How it was run: as §1

[6] = test system: barnyardgrass (Echinochloa crus-galli); assay: Test G Pre-Emergence Protocol; conditions: Echinochloa crus-galli, pre-emergence, 312 h, evaluated after 13 days; for pest or weed control at 15.625 g/ha: 15.625 g ai/ha, read-out: Barnyard grass damage rating (100=total damage to plant; 0=no damage to plant); for pest or weed control at 62.5 g/ha: 62.5 g ai/ha, 100=total damage to plant, 0=no damage to plant, read-out: plant damage rating, Barnyardgrass; for pest or weed control at 250 g/ha: 250 g ai/ha, read-out: Barnyardgrass damage rating (100=total damage to plant; 0=no damage to plant)
How it was run: as §1

[7] = test system: redroot pigweed (Amaranthus retroflexus); assay: Test G Post-Emergence Protocol; conditions: Amaranthus retroflexus, post-emergence, 312 h; for pest or weed control at 15.625 g/ha: 15.625 g ai/ha, evaluated after 13 days (100=total damage to plant; 0=no damage to plant), read-out: Pigweed, Redroot damage rating; for pest or weed control at 62.5 g/ha: 62.5 g ai/ha, read-out: Pigweed, Redroot damage rating (100=total damage to plant; 0=no damage to plant); for pest or weed control at 62.5 g/ha / pest or weed control at 250 g/ha: evaluated after 13 days; for pest or weed control at 250 g/ha: 250 g ai/ha, read-out: damage to plant, Pigweed, Redroot (100=total damage to plant; 0=no damage to plant)
How it was run: (§2)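 Values are percent visual injury at 13 days after treatment (0 none, 100 total). Treatment was a post-emergence spray at 15.625, 62.5 or 250 g/ha on 8-day-old pot plants kept at 24/16 °C.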

[8] = test system: velvetleaf (Abutilon theophrasti); assay: Test G Post-Emergence Protocol; conditions: Abutilon theophrasti, post-emergence, 312 h; for pest or weed control at 15.625 g/ha: 15.625 g ai/ha, evaluated after 13 days (100=total damage to plant; 0=no damage to plant), read-out: Velvetleaf damage rating; for pest or weed control at 62.5 g/ha: 62.5 g ai/ha, read-out: Velvetleaf damage rating (100=total damage to plant; 0=no damage to plant); for pest or weed control at 62.5 g/ha / pest or weed control at 250 g/ha: evaluated after 13 days; for pest or weed control at 250 g/ha: 250 g ai/ha, read-out: damage to plant, Velvetleaf (100=total damage to plant; 0=no damage to plant)
How it was run: as §2

[9] = test system: corn (Zea mays); assay: Test G Post-Emergence Protocol; conditions: Zea mays, post-emergence, 312 h; for plant injury at 15.625 g/ha: 15.625 g ai/ha, evaluated after 13 days (100=total damage to plant; 0=no damage to plant), read-out: Corn damage rating; for plant injury at 62.5 g/ha: 62.5 g ai/ha, read-out: Corn damage rating (100=total damage to plant; 0=no damage to plant); for plant injury at 62.5 g/ha / plant injury at 250 g/ha: evaluated after 13 days; for plant injury at 250 g/ha: 250 g ai/ha, read-out: damage to plant, Corn (100=total damage to plant; 0=no damage to plant)
How it was run: as §2

[10] = test system: giant foxtail (Setaria faberi); assay: Test G Post-Emergence Protocol; conditions: Setaria faberi, post-emergence, 312 h; for pest or weed control at 15.625 g/ha: 15.625 g ai/ha, evaluated after 13 days (100=total damage to plant; 0=no damage to plant), read-out: Foxtail, Giant damage rating; for pest or weed control at 62.5 g/ha: 62.5 g ai/ha, read-out: Foxtail, Giant damage rating (100=total damage to plant; 0=no damage to plant); for pest or weed control at 62.5 g/ha / pest or weed control at 250 g/ha: evaluated after 13 days; for pest or weed control at 250 g/ha: 250 g ai/ha, read-out: damage to plant, Foxtail, Giant (100=total damage to plant; 0=no damage to plant)
How it was run: as §2

[11] = test system: ivy-leaved morning glory (Ipomoea hederacea); assay: Test G Post-Emergence Protocol; conditions: Ipomoea, post-emergence, 312 h; for pest or weed control at 15.625 g/ha: 15.625 g ai/ha, evaluated after 13 days (100=total damage to plant; 0=no damage to plant), read-out: Morningglory, Ivy-leaved damage rating; for pest or weed control at 62.5 g/ha: 62.5 g ai/ha, read-out: Morningglory, Ivy-leaved damage rating (100=total damage to plant; 0=no damage to plant); for pest or weed control at 62.5 g/ha / pest or weed control at 250 g/ha: evaluated after 13 days; for pest or weed control at 250 g/ha: 250 g ai/ha, read-out: damage to plant, Morningglory, Ivy-leaved (100=total damage to plant; 0=no damage to plant)
How it was run: as §2

[12] = test system: barnyardgrass (Echinochloa crus-galli); assay: Test G Post-Emergence Protocol; conditions: Echinochloa crus-galli, post-emergence, 312 h; for pest or weed control at 15.625 g/ha: 15.625 g ai/ha, evaluated after 13 days (100=total damage to plant; 0=no damage to plant), read-out: Barnyardgrass damage rating; for pest or weed control at 62.5 g/ha: 62.5 g ai/ha, read-out: Barnyardgrass damage rating (100=total damage to plant; 0=no damage to plant); for pest or weed control at 62.5 g/ha / pest or weed control at 250 g/ha: evaluated after 13 days; for pest or weed control at 250 g/ha: 250 g ai/ha, read-out: damage to plant, Barnyardgrass (100=total damage to plant; 0=no damage to plant)
How it was run: as §2

Row | Structure (SMILES) | pest or weed control at 15.625 g/ha [1] | pest or weed control at 62.5 g/ha [1] | pest or weed control at 250 g/ha [1] | pest or weed control at 15.625 g/ha [2] | pest or weed control at 62.5 g/ha [2] | pest or weed control at 250 g/ha [2] | plant injury at 15.625 g/ha [3] | plant injury at 62.5 g/ha [3] | plant injury at 250 g/ha [3] | pest or weed control at 15.625 g/ha [4] | pest or weed control at 62.5 g/ha [4] | pest or weed control at 250 g/ha [4] | pest or weed control at 15.625 g/ha [5] | pest or weed control at 62.5 g/ha [5] | pest or weed control at 250 g/ha [5] | pest or weed control at 15.625 g/ha [6] | pest or weed control at 62.5 g/ha [6] | pest or weed control at 250 g/ha [6] | pest or weed control at 15.625 g/ha [7] | pest or weed control at 62.5 g/ha [7] | further results
1 | CN1C[C@H](c2ccc(C(F)(F)F)cc2)[C@@H](C(=O)Nc2ccccc2C(C)(C)C)C1=O (racemic) [Compound 1445] | 0% | 0% | 0% | 0% | 0% | 0% | 0% | 0% | 0% | 0% | 0% | 0% | 0% | 0% | 0% | 0% | 0% | 0% | 0% | 0% | pest or weed control at 250 g/ha [7]: 0%; pest or weed control at 15.625 g/ha [8]: 0%; pest or weed control at 62.5 g/ha [8]: 0%; pest or weed control at 250 g/ha [8]: 0%; plant injury at 15.625 g/ha [9]: 0%; plant injury at 62.5 g/ha [9]: 0%; plant injury at 250 g/ha [9]: 0%; pest or weed control at 15.625 g/ha [10]: 0%; pest or weed control at 62.5 g/ha [10]: 0%; pest or weed control at 250 g/ha [10]: 0%; pest or weed control at 15.625 g/ha [11]: 0%; pest or weed control at 62.5 g/ha [11]: 0%; pest or weed control at 250 g/ha [11]: 0%; pest or weed control at 15.625 g/ha [12]: 0%; pest or weed control at 62.5 g/ha [12]: 0%; pest or weed control at 250 g/ha [12]: 0%
2 | CN1C[C@H](c2ccc(C(F)(F)F)cc2)[C@@H](C(=O)Nc2ccc(F)cn2)C1=O (racemic) [Compound 1450] | 0% | 0% | 80% | 0% | 0% | 0% | 0% | 0% | 0% | 40% | 70% | 90% | 0% | 0% | 0% | 10% | 30% | 70% | 0% | 0% | pest or weed control at 250 g/ha [7]: 30%; pest or weed control at 15.625 g/ha [8]: 0%; pest or weed control at 62.5 g/ha [8]: 0%; pest or weed control at 250 g/ha [8]: 0%; plant injury at 15.625 g/ha [9]: 0%; plant injury at 62.5 g/ha [9]: 10%; plant injury at 250 g/ha [9]: 10%; pest or weed control at 15.625 g/ha [10]: 0%; pest or weed control at 62.5 g/ha [10]: 30%; pest or weed control at 250 g/ha [10]: 60%; pest or weed control at 15.625 g/ha [11]: 0%; pest or weed control at 62.5 g/ha [11]: 10%; pest or weed control at 250 g/ha [11]: 20%; pest or weed control at 15.625 g/ha [12]: 0%; pest or weed control at 62.5 g/ha [12]: 10%; pest or weed control at 250 g/ha [12]: 20%
